± gives the standard deviation of the reports.
Point of comparison: `*c1ccc(OCCCCOc2ccc(-c3nc4ccc(-c5ccc6nc(*)c(-c7ccccc7)nc6c5)cc4nc3-c3ccccc3)cc2)cc1` (repeat unit), glass transition temperature 240.00 °C. Against it:
- *O[Si](C)(C)O[Si](C)(C)O[Si](C)(C)O[Si](C)(C)O[Si](C)(C)OC1=C(*)c2cccc3cccc1c23 (repeat unit) — lower, -54.00 °C
- *CCCCCCCOC(=O)c1ccc2cc(C(=O)O*)ccc2c1 (repeat unit) — lower, 52.50 °C
- *CC(*)c1ccc(Cn2c3ccccc3c3ccccc32)cc1 (repeat unit) — lower, 166.00 °C
- *CC(*)(C)C(=O)OCCCCCCCCCOc1ccc2cc(C(=O)Oc3ccccc3)ccc2c1 (repeat unit) — lower, 18.00 °C
- *c1ccc(-c2nc3cc(Oc4ccc(NC(=O)c5cc(C(=O)Nc6ccc(Oc7ccc8nc(-c9ccccc9)c(-c9ccc(N%10C(=O)c%11ccc%12c%13c(ccc(c%11%13)C%10=O)C(=O)N(*)C%12=O)cc9)nc8c7)cc6)cc(N6C(=O)c7c(Cl)c(Cl)c(Cl)c(Cl)c7C6=O)c5)cc4)ccc3nc2-c2ccccc2)cc1 (repeat unit) — higher, 345.00 °C
- *CCCCCCCCCCCCOC(=O)c1ccc(-c2ccc(C(=O)O*)cc2)cc1 (repeat unit) — lower, 50.50 °C
- *C(=O)c1ccc2c(c1)C(=O)N(c1cccc(Cc3ccc(Cc4ccc(Cc5cccc(N6C(=O)c7ccc(*)cc7C6=O)c5)cc4)cc3)c1)C2=O (repeat unit) — lower, 235.50 °C
- *c1ccc(-c2cc(-c3ccccc3)c3cc(-c4ccc5nc(*)cc(-c6ccccc6)c5c4)ccc3n2)cc1 (repeat unit) — higher, 395.00 °C
- */C=C/C1CC(*)C(C#N)(C[Si](C)(C)O[Si](C)(C)C)C1 (repeat unit) — lower, 68.00 °C
- *O[Si](C)(C)O[Si](C)(C)O[Si](C)(C)c1ccc(Oc2ccc([Si](*)(C)C)cc2)cc1 (repeat unit) — lower, -37.00 °C
- *c1ccc(Oc2ccc(C(=O)c3ccc(Oc4ccc(C5(*)OC(=O)c6ccccc65)cc4)cc3)cc2)cc1 (repeat unit) — lower, 218.00 °C
- *CC(*)(CC(=O)OCCCl)C(=O)OCCCl (repeat unit) — lower, 43.00 °C
- *Cc1ccc2oc(=O)c(C(=O)Nc3ccc(C(c4ccc(NC(=O)c5cc6cc(*)ccc6oc5=O)cc4)(C(F)(F)F)C(F)(F)F)cc3)cc2c1 (repeat unit) — higher, 329.00 °C
- *Oc1ccc(S(=O)(=O)c2ccc(Oc3ccc(C(C)(CCC(=O)O)c4ccc(*)cc4)cc3)cc2)cc1 (repeat unit) — lower, 163.00 °C
- *NNC(=O)c1ccc(C(=O)NNC(=O)c2ccc([Si](c3ccccc3)(c3ccccc3)c3ccc(C(*)=O)cc3)cc2)c2ccccc12 (repeat unit) — higher, 270.00 °C
- *c1ccc2c(c1)C(*)(C)CC2(C)C (repeat unit) — lower, 215.50 °C
- *C(=O)NCCCCCCNC(=O)c1ncn(C)c1* (repeat unit) — lower, 86.00 °C
- *CCC(C)Oc1ccc(-c2ccc(C(=O)OCC(C)COC(=O)c3ccc(-c4ccc(O*)cc4)cc3)cc2)cc1 (repeat unit) — lower, 84.00 °C
- *Oc1cccc(NC(=O)c2ccc(Oc3ccc(C(C)(C)c4ccc(C(C)(C)c5ccc(Oc6ccc(C(=O)Nc7ccc(*)cc7)cc6)cc5)cc4)cc3)cc2)c1 (repeat unit) — lower, 168.00 °C
- *c1ccc(Oc2ccc(P(=O)(c3ccccc3)c3ccc(Oc4ccc(-c5cc(*)n(-c6ccccc6)n5)cc4)cc3)cc2)cc1 (repeat unit) — lower, 239.00 °C
- *Cc1cc(C23CC4CC(CC(C4)C2)C3)cc(CN(*)C)c1O (repeat unit) — lower, 188.80 °C
- *CCCCCCCCCCCCCCCCCCNC(=O)CCc1ccc(CCC(=O)N*)cc1 (repeat unit) — lower, 65.00 °C
- *OP(=O)(Oc1ccccc1)Oc1ccc(C(C)(C)c2ccc(*)cc2)cc1 (repeat unit) — lower, 74.50 °C
- *CC(*)C(=O)Nc1ccccc1 (repeat unit) [Poly(N-phenyl acrylamide)] — lower, 155.92 ± 5.8 °C
- *CC(=O)NCCCCCCNC(=O)CO* (repeat unit) — lower, 10.00 °C
- *CC1CC2CC1C1CCC(CN3C(=O)c4ccc(C(=O)c5ccc6c(c5)C(=O)N(*)C6=O)cc4C3=O)C21 (repeat unit) — lower, 217.00 °C
- *c1ccc2c(c1)C(=O)N(c1ccc(C(=O)Nc3ccc(Oc4ccccc4Oc4ccc(NC(=O)c5ccc(N6C(=O)c7ccc(C(*)(C(F)(F)F)C(F)(F)F)cc7C6=O)cc5)cc4)cc3)cc1)C2=O (repeat unit) — higher, 281.00 °C
- *c1ccc(-c2ccc(-c3ccc(-c4ccc(-c5ccc6c(c5)C(=O)N(c5ccc(Oc7ccc(C(C)(C)c8ccc(Oc9ccc(N%10C(=O)c%11ccc(*)cc%11C%10=O)cc9)cc8)cc7)cc5)C6=O)cc4)cc3)cc2)cc1 (repeat unit) — lower, 236.00 °C
- *CC(*)(C)C(=O)OCCCCCCCCCCCn1c2ccccc2c2ccccc21 (repeat unit) — lower, 31.00 °C
- *Oc1ccc(C(=O)c2cccc(NC(=O)c3ccc(C(=O)Nc4cccc(C(=O)c5ccc(*)cc5)c4)cc3)c2)cc1 (repeat unit) — lower, 189.00 °C
- *C(=O)c1ccc2c(c1)C(=O)N(c1ccc(/C=C/c3ccc(N4C(=O)c5ccc(*)cc5C4=O)cc3S(=O)(=O)[O][Na])c(S(=O)(=O)[O][Na])c1)C2=O (repeat unit) — lower, 229.00 °C
- *Oc1ccc(-c2ccc(Oc3ccc(C(=O)c4ccc(C(=O)c5ccc(*)cc5)cc4)cc3)cc2)cc1 (repeat unit) — lower, 173.00 °C
- *c1ccc(Oc2cccc(Oc3ccc(N4C(=O)c5ccc(Oc6ccc(-c7ccc(Oc8ccc9c(c8)C(=O)N(*)C9=O)cc7)cc6)cc5C4=O)cc3)c2)cc1 (repeat unit) — lower, 205.00 °C
- *C(=O)c1ccc2c(c1OCc1ccccc1[N+](=O)[O-])C(=O)N(c1ccc(Oc3ccc(N4C(=O)c5ccc(*)c(OCc6ccccc6[N+](=O)[O-])c5C4=O)cc3)cc1)C2=O (repeat unit) — lower, 198.00 °C
- *Oc1ccc(C2(c3ccc(Oc4ccc(C(=O)c5cccc(C(=O)c6ccc(*)cc6)c5)cc4)cc3)c3ccccc3-c3ccccc32)cc1 (repeat unit) — lower, 223.00 °C
- *c1ccc(C(C#N)(C(=O)OCCCC)C(*)(C#N)C(=O)OCCCC)cc1 (repeat unit) — lower, 108.00 °C
- *CC(CCl)O* (repeat unit) [Poly(epichlorohydrin)] — lower, -22.22 ± 1.5 °C
- *CC(*)(C#N)C(=O)OC(C)C (repeat unit) — lower, 66.00 °C
- *C(=O)Nc1ccc(Cc2ccc(NC(=O)c3ccc4c(c3)C(=O)N(c3ccc(-c5sc(-c6ccc(N7C(=O)c8ccc(*)cc8C7=O)cc6)c(-c6ccccc6)c5-c5ccccc5)cc3)C4=O)cc2)cc1 (repeat unit) — higher, 253.00 °C
- */C(=C(\[2H])C([2H])([2H])C(*)([2H])[2H])C([2H])([2H])[2H] (repeat unit) — lower, -58.00 °C
- *C(=O)Oc1ccc(C2(c3ccc(OC(=O)c4ccc5c(c4)C(=O)N(c4ccc(-c6ccc(N7C(=O)c8ccc(*)cc8C7=O)cc6C)c(C)c4)C5=O)cc3)CCCCCCCCCCC2)cc1 (repeat unit) — lower, 204.00 °C
- *CCOC(=O)c1ccc(C(C)(CC)c2ccc(C(=O)O*)cc2)cc1 (repeat unit) — lower, 95.00 °C
- *OCCOC(=O)c1ccc(C(=O)OCCOc2nc(-c3ccc(OCCCC)cc3)nc(*)c2-c2ccc(OC)cc2)cc1 (repeat unit) — lower, 94.00 °C
- *c1ccc2c(c1)C(=O)N(c1cccc(N3C(=O)c4ccc(C(*)(C(F)(F)F)C(F)(F)F)cc4C3=O)c1)C2=O (repeat unit) — higher, 298.00 ± 3.2 °C
- *CC(CSC)O* (repeat unit) — lower, -37.00 °C
- *OC(=O)OCC1OC(C)(C)OC1COC(=O)OC1COC2C(*)COC12 (repeat unit) — lower, 95.50 °C
- *c1ccc(Oc2ccc(C(=O)c3ccc(Oc4ccc(-c5cc(*)n(-c6ccccc6)n5)cc4)cc3)cc2)cc1 (repeat unit) — lower, 205.00 °C
- *CC(OC(C)=O)C(CCC(C)(O)C=C)C(*)(C)C (repeat unit) — lower, 85.00 °C
- *CCCCCCCCn1c2ccccc2c2cc(/C=C(\C#N)C(=O)OCCCCCCOC(=O)/C(C#N)=C/c3ccc4c(c3)c3ccccc3n4*)ccc21 (repeat unit) — lower, 96.70 °C
- *c1ccc(Oc2ccc(N3C(=O)CC4C(CC5C(=O)N(*)C(=O)C54)C3=O)cc2)cc1 (repeat unit) — higher, 350.00 °C
- *C(=O)Nc1ccc(N2C(=O)CC(N3C(=O)c4ccc(*)cc4C3=O)C2=O)cc1 (repeat unit) — lower, 120.00 °C
- *c1cccc(C(=O)Nc2ccc(Oc3ccc(Oc4ccc(Oc5ccc(NC(=O)c6cccc(N7C(=O)c8ccc(-c9cccc%10c9C(=O)N(*)C%10=O)cc8C7=O)c6)cc5)cc4)cc3)cc2)c1 (repeat unit) — higher, 260.00 °C
- *Oc1ccc(C(C)(C)c2ccc(OC(=O)c3ccc(C(*)=O)cc3)c(C)c2)cc1C (repeat unit) — lower, 178.50 °C
- *Oc1ccc(C2(c3ccc(OC(=O)CCCCCCC(*)=O)cc3)c3ccccc3-c3ccccc32)cc1 (repeat unit) — lower, 158.00 °C
- *c1ccc(CC(=O)Nc2ccc(Oc3ccc(NC(=O)Cc4ccc(-c5sc(*)c(-c6ccccc6)c5-c5ccccc5)cc4)cc3)cc2)cc1 (repeat unit) — lower, 226.00 °C
- *C(=O)c1ccc(N(*)CCCC)cc1 (repeat unit) — lower, 124.00 °C
- *c1ccc(CC(=O)Nc2cccc3c(NC(=O)Cc4ccc(-c5sc(*)c(-c6ccccc6)c5-c5ccccc5)cc4)cccc23)cc1 (repeat unit) — higher, 255.00 °C
- *CC(COC(C)(C)C)O* (repeat unit) — lower, -24.00 °C
- *CCCCCCCCC(*)Cl (repeat unit) — lower, -33.00 °C
- *OC(=O)C(Cc1ccccc1)NC(=O)CCCCC(=O)NC(Cc1ccccc1)C(=O)OC1COC2C(*)COC12 (repeat unit) — lower, 97.50 °C
- *CC(*)c1ccc(B(O[Si](C)(C)C)O[Si](C)(C)C)cc1 (repeat unit) — lower, 84.00 °C
- *CC(*)(C)C(=O)OCCC[Si](OC)(OC)OC (repeat unit) — lower, 9.00 °C
